6 compounds from ChEMBL document CHEMBL1122041, “Molecular structures of 2,4-diaminopyrimidine antifolates with antineoplastic activity” (J Med Chem, 1982) can be followed below.

For assay [1], the system named is TA3. Kind of assay: Evaluated for the concentration needed for 50% growth inhibition of mouse mammary adenocarcinoma cells (TA3) in culture. The assay is classed as functional. To be noted: TA3, read-out: ID50.
Assay [2] concerns the target T1, Dihydrofolate reductase (Homo sapiens, UniProt P00374).
T1 sequence (P00374 whole entry): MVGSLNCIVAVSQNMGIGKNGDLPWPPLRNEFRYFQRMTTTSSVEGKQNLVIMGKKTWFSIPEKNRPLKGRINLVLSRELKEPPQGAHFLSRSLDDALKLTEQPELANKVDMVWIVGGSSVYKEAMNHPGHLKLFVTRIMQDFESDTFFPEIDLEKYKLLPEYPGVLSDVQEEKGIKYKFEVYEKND
Kind of assay: Competitive inhibition of mammalian dihydrofolate reductase.

Assay [3] addresses T1, Dihydrofolate reductase. In words: Noncompetitive inhibition of mammalian Dihydrofolate reductase.
Assay [4] deals with TA3. Kind of assay: Evaluated for the concentration needed for 50% growth inhibition of mouse mammary adenocarcinoma cells (TA3) in culture. The assay is classed as functional. To be noted: TA3, read-out: ID50.

Consider `Cc1nc(N)nc(N)c1-c1ccc2ccccc2c1`, for which the IC50 in the assay on TA3 [1] came out at 70 nM.
As to `Cc1nc(N)nc(N)c1NC(=O)C12CC3CC(CC(C3)C1)C2`, at Dihydrofolate reductase [2], the Ki was 9 nM.
`Cc1nc(N)nc(N)c1-c1cccc2ccccc12` registered a Ki at Dihydrofolate reductase [3] of 56000 nM.
Take `Cc1nc(N)nc(N)c1C12CC3CC(CC(C3)C1)C2`: the IC50 in the assay on TA3 [4] is 6 nM.
On the same count and under the same terms, the result for `CCc1nc(N)nc(N)c1C12CC3CC(CC(C3)C1)C2` reads 0.25 nM.
Take `CN(Cc1cnc2nc(N)nc(N)c2n1)c1ccc(C(=O)N[C@@H](CCC(=O)O)C(=O)O)cc1` [METHOTREXATE]: the IC50 with TA3 [1] was found to be 8 nM.

As usually defined, the Ki is the equilibrium dissociation constant of an inhibitor or competing ligand from its target.
